Reference: paper PMC2195872 (The Journal of Experimental Medicine, 2000)

Biological target: LTB4 receptor (Homo sapiens, UniProt Q15722)
Test: [3H]LTB4 competition radioligand binding on HEK293 cells
Assay type: cell-based

Chain of LTB4 receptor (Q15722 whole entry): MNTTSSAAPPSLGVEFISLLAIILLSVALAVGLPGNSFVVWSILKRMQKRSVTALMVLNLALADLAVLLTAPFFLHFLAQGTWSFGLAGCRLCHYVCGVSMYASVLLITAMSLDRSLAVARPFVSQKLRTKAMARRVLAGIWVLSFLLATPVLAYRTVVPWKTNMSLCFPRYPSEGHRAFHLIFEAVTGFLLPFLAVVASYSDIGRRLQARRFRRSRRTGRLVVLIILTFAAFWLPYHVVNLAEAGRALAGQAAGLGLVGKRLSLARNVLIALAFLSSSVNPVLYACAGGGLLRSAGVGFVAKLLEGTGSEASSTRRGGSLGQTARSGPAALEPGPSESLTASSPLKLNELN

Question: With `CC/C=C\C/C=C\C[C@@H](O)/C=C/C=C/C=C\[C@@H](O)CCCC(=O)O` [LTB5] as the molecule, how does the IC50 read?
Answer: Its IC50 is ~500 nM.
